Results on eight molecules are retold here after publication PMC12736086, “Synthesis and In Vitro Evaluation of Anticancer Activity of Fluorophenyl Derivatives of 1,3,4-Thiadiazole Against Estrogen-Dependent Breast Cancer” (Molecules, 2025).

Experiment [1] deals with MCF-7 cell line. Details: method as in PMID 35335177. Particulars: MCF-7, previous study; cited from earlier work.
For experiment [2], the system named is MCF-7 (estrogen-dependent) breast cancer cell line. The experiment is described as follows: MTT assay, cell viability of MCF-7 cells. Format: cell-based. Particulars: Homo sapiens, MCF7, 24 h, 24 h exposure. The method, then: (§1) To investigate how the tested compounds affect cell viability, experiments were performed using two human breast cancer cell lines—MDA-MB-231 and MCF-7 and human fibroblasts—HMF (normal cells). The MDA-MB-231 cell line represents a highly invasive, triple-negative breast cancer (TNBC) model, lacking estrogen receptor (ER), progesterone receptor (PR), and HER2 expression. In contrast, MCF-7 cells are estrogen receptor-positive (ER+), less invasive, and hormone-responsive, making them a well-established model for luminal-type breast cancer and hormone therapy research. Anastrozole, an aromatase inhibitor, served as a reference drug. The MTT assay applied in this study relies on mitochondrial dehydrogenase enzymes to reduce a water-soluble […] tetrazolium salt (3-(4,5-dimethylthiazol-2-yl)-2,5-diphenyltetrazolium bromide, or MTT) into a dark blue, insoluble formazan compound. The amount of this formazan product formed is directly related to the mitochondrial activity of viable, metabolically active cells in the sample. The efficacy of the compounds was assessed based on IC50 values and analysis of the concentration-dependence of cell survival.
(§2) The experiments were conducted using MDA-MB-231 and MCF-7 human breast cancer cell lines, as well as human fibroblasts (HMF). All cell lines were sourced from the American Type Culture Collection (ATCC; Manassas, VA, USA). Cells were maintained under standard culture conditions (37 °C, 5% CO2). Breast cancer cells were grown in Dulbecco’s Modified Eagle Medium (DMEM) supplemented with 10% fetal bovine serum (FBS), while fibroblasts were cultured in Eagle’s Minimum Essential Medium (EMEM) with the same serum concentration. To prevent microbial contamination, penicillin (100 U/mL) and streptomycin (100 µg/mL) were added to the media. All cell culture reagents were obtained from Sigma Aldrich (St. Louis, MO, USA).
(§3) Cell viability was evaluated using the MTT assay kit (Sigma Aldrich, St. Louis, MO, USA). On day one of the experiment, MCF-7, MDA-MB-231 cells and human fibroblasts were seeded into 96-well culture plates (Nunc, Roskilde, Denmark) at a density of 1 × 10^5 cells/mL (human fibroblast cell line) and 5 × 10^4 cells/mL (MCF-7, MDA-MB-231 cell lines). After 24 h of incubation, the culture medium was removed and replaced with serial dilutions of test compounds or anastrozole (1, 12.5, 25, 50, 100 µM). Control wells received fresh medium only. Cells were incubated for another 24 h under standard conditions. Following this, 15 µL of MTT solution (5 mg/mL) was added to each well and incubated for 3 h. Afterward, a 10% sodium dodecyl sulfate (SDS) solution was added, and the plates were left overnight. On the following day, absorbance was measured at 570 nm using a microplate reader (Epoch, BioTek Instruments, Inc., Winooski, VT, USA) with Gen5 software (version 2.01, BioTek Instruments).
(§4) Data were analyzed using GraphPad software version 5.01 (GraphPad Software, Inc., La Jolla, CA, USA). Results are expressed as means ± standard deviation (±SD). IC50 values were calculated using the IC50 calculator provided by AAT Bioquest.

Experiment [3] concerns MDA-MB-231 (triple-negative) breast cancer cell line. The experiment is described as follows: MTT assay, cell viability of MDA-MB-231 cells. Format: cell-based, human. Particulars: 24 h exposure. On the procedure: as §1, §2, §3, §4
(In general: Formazan colour is commonly taken as a measure of viable cells.)

Experiment [4] concerns human fibroblasts (HMF). The experiment is described as follows: MTT assay, cell viability of normal HMF fibroblasts. Format: cell-based. Particulars: Fibroblast, 24 h, 24 h exposure. On the procedure:
as §1, §2, §3, §4

What is called IC50 is the point on the concentration scale where inhibition reaches its midpoint. In the case of `COc1cccc(-c2nnc(Nc3ccccc3C(F)(F)F)s2)c1` [2-(2-trifluoromethylphenylamino)-5-(3-methoxyphenyl)-1,3,4-thiadiazole], the IC50 in experiment [1] was 49.6 µM.

With `Fc1cccc(-c2nnc(Nc3ccccc3I)s2)c1` [A1, 5-(3-Fluorophenyl)-2-(2-iodophenylamino)-1,3,4-thiadiazole], the IC50 is 66 µM in experiment [2]; above 100 µM in experiment [3] (Homo sapiens, MDA-MB-231, 24 h); 51 µM in experiment [4].

On to `Fc1cccc(-c2nnc(Nc3ccccc3Br)s2)c1` [A2, 2-(2-Bromophenylamino)-5-(3-fluorophenyl)-1,3,4-thiadiazole], for which the IC50 is 52.4 µM in experiment [2]; above 100 µM in experiment [3] (Homo sapiens, MDA-MB-231, 24 h); 36.5 µM in experiment [4].

As for `Fc1cccc(-c2nnc(Nc3ccccc3Cl)s2)c1` [A3, 2-(2-Chlorophenylamino)-5-(3-fluorophenyl)-1,3,4-thiadiazole], the IC50 in experiment [2] is 54.8 µM; in experiment [3] (Homo sapiens, MDA-MB-231, 24 h), above 100 µM; in experiment [4], 36.9 µM.

As to `CC(C)(C#N)c1cc(Cn2cncn2)cc(C(C)(C)C#N)c1` [Anastrozole, reference compound], the IC50 is above 100 µM in experiment [2]; above 100 µM in experiment [3]; at least 100 µM in experiment [3] (Homo sapiens, MDA-MB-231, 24 h); above 100 µM in experiment [4].

For the molecule `Fc1ccc(-c2nnc(Nc3ccccc3I)s2)cc1` [B1, 5-(4-Fluorophenyl)-2-(2-iodophenylamino)-1,3,4-thiadiazole], the IC50 in experiment [2] is 53.9 µM; in experiment [3] (Homo sapiens, MDA-MB-231, 24 h), above 100 µM; in experiment [4], 45.6 µM.

As to `Fc1ccc(-c2nnc(Nc3ccccc3Br)s2)cc1` [B2, 2-(2-Bromophenylamino)-5-(4-fluorophenyl)-1,3,4-thiadiazole], the IC50 is 82.5 µM in experiment [2]; above 100 µM in experiment [3] (Homo sapiens, MDA-MB-231, 24 h); 41.8 µM in experiment [4].

Turning to `Fc1ccc(-c2nnc(Nc3ccccc3Cl)s2)cc1` [B3, 2-(2-Chlorophenylamino)-5-(4-fluorophenyl)-1,3,4-thiadiazole], the IC50 in experiment [2] is 54.1 µM; in experiment [3] (Homo sapiens, MDA-MB-231, 24 h) it was above 100 µM; in experiment [4], above 100 µM.
